Where “and” joins values, the source holds several entries; their conditions need not be identical. Equal values may be shown once. Toxic doses and inconclusive results are not listed.
Test system: L1210 leukemia ip in BDF1 mice, survival T/C
Assay: NCI In Vivo Anticancer Drug Screen. Data for tumor model L1210 Leukemia (intraperitoneal) in B6D2F1 (BDF1) mice
Settings: endpoint: mean survival time, higher = longer survival
Outline: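 In this screen, tumor-bearing mice given compound are compared to those given vehicle, and their survival values are reported as a treated-to-control quotient.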

[1] = dose: 100.0 mg/kg/injection, schedule: Q01DX001 (ip), vehicle: saline
[2] = dose: 200.0 mg/kg/injection, schedule: Q01DX001 (ip), vehicle: saline
[3] = dose: 400.0 mg/kg/injection, schedule: Q01DX001 (ip), vehicle: saline
[4] = dose: 100.0 mg/kg/injection, schedule: Q04DX003 (ip), vehicle: saline with Tween-80
[5] = dose: 200.0 mg/kg/injection, schedule: Q04DX003 (ip), vehicle: saline with Tween-80
[6] = dose: 100.0 mg/kg/injection, schedule: Q01DX009 (ip), vehicle: Klucel (hydroxypropylcellulose) (HPC)
[7] = dose: 200.0 mg/kg/injection, schedule: Q01DX009 (ip), vehicle: Klucel (hydroxypropylcellulose) (HPC)
[8] = dose: 400.0 mg/kg/injection, schedule: Q01DX009 (ip), vehicle: Klucel (hydroxypropylcellulose) (HPC)
[9] = dose: 8.0 mg/kg/injection, schedule: Q01DX Z (ip), vehicle: carboxymethylcellulose (CMC)
[10] = dose: 200.0 mg/kg/injection, schedule: Q04DX002 (ip), vehicle: saline with Tween-80
[11] = dose: 50.0 mg/kg/injection, schedule: Q01DX001 (ip), vehicle: carboxymethylcellulose (CMC)
[12] = dose: 100.0 mg/kg/injection, schedule: Q01DX001 (ip), vehicle: carboxymethylcellulose (CMC)
[13] = dose: 200.0 mg/kg/injection, schedule: Q01DX001 (ip), vehicle: carboxymethylcellulose (CMC)
[14] = dose: 400.0 mg/kg/injection, schedule: Q01DX001 (ip), vehicle: carboxymethylcellulose (CMC)

With `O=c1[nH]c(NCCCCc2ccccc2)c(Br)c(=O)[nH]1` as the molecule, how does the T/C (dose: 25.0 mg/kg/injection, schedule: Q01DX001 (ip), vehicle: saline with Tween-80) read?
The T/C was 98 % of control.

What about the T/C (dose: 50.0 mg/kg/injection, schedule: Q01DX001 (ip), vehicle: saline with Tween-80) of the same molecule?
Its T/C is 97 % of control.

What about the T/C (dose: 100.0 mg/kg/injection, schedule: Q01DX001 (ip), vehicle: saline with Tween-80) of the same molecule?
The T/C was 98 % of control.

With `Cc1nnc(NS(=O)(=O)c2ccc(N=Nc3c(N)[nH]c(=S)[nH]c3=O)cc2)s1` as the molecule, how does the T/C [1] read?
Its T/C is 100 % of control.

What about the T/C [2] of the same molecule?
The T/C was 100 % of control.

What about the T/C [3] of the same molecule?
The T/C was 100 % of control.

Which T/C [4] does the source give for `Nc1ncc(Br)c2ccccc12` here?
Its T/C is 96 % of control.

And the T/C [5]?
Its T/C is 103 % of control.

Which results are given for `CC1(C)OCC2OC(N)C(O)C2O1` (centres undefined)?
T/C (dose: 100.0 mg/kg/injection, schedule: Q04DX003 (ip), vehicle: saline): 100 % of control; T/C (dose: 200.0 mg/kg/injection, schedule: Q04DX003 (ip), vehicle: saline): 89 % of control; T/C (dose: 400.0 mg/kg/injection, schedule: Q04DX003 (ip), vehicle: saline): 98 % of control

How did the T/C (dose: 12.5 mg/kg/injection, schedule: Q04DX002 (ip), vehicle: Klucel (hydroxypropylcellulose) (HPC)) turn out when `CCC(SC#N)C(CC)SC#N` (centres undefined) was run?
The T/C was 103 % of control.

And the T/C (dose: 25.0 mg/kg/injection, schedule: Q04DX002 (ip), vehicle: Klucel (hydroxypropylcellulose) (HPC))?
Its T/C is 93 % of control.

What about the T/C (dose: 50.0 mg/kg/injection, schedule: Q04DX002 (ip), vehicle: Klucel (hydroxypropylcellulose) (HPC)) of the same molecule?
Its T/C is 90 % of control.

Which results are given for `O=C(O)C(=O)c1ccc(O)cc1O`?
T/C [1]: 111 % of control; T/C [2]: 103 % of control

Which T/C (dose: 100.0 mg/kg/injection, schedule: Q01DX009 (ip), vehicle: saline sonified) does the source give for `C=CP(c1ccccc1)c1ccccc1` here?
Its T/C is 103 % of control.

And the T/C (dose: 200.0 mg/kg/injection, schedule: Q01DX009 (ip), vehicle: saline sonified)?
The T/C was 110 % of control.

For `CC1CCCC(CN=Cc2ccccc2O)[N-]1.CC1CCCC(CN=Cc2ccccc2O)[N-]1.[Ni+2]` (centres undefined), which T/C [4] is on record?
The T/C was 98 % of control.

For `Nc1cc(N)ncn1`, which T/C (dose: 25.0 mg/kg/injection, schedule: Q01DX009 (ip), vehicle: Klucel (hydroxypropylcellulose) (HPC)) is on record?
Its T/C is 101 % of control.

And the T/C (dose: 50.0 mg/kg/injection, schedule: Q01DX009 (ip), vehicle: Klucel (hydroxypropylcellulose) (HPC))?
Its T/C is 98 % of control.

What about the T/C [6] of the same molecule?
Its T/C is 102 % of control.

How did the T/C [6] turn out when `Cc1cc(C)c(NC(=O)C(C)(C)C)c(C)c1` was run?
Its T/C is 96 % of control and 100 % of control.

And the T/C [7]?
Its T/C is 102 % of control.

And the T/C [8]?
Its T/C is 96 % of control and 100 % of control.

Which T/C (dose: 12.5 mg/kg/injection, schedule: Q01DX009 (ip), vehicle: water) does the source give for `CCCCCCCCCCCC(=O)OCC1OC2C(Oc3nc(=N)ccn32)C1OC(=O)CCCCCCCCCCC` (centres undefined) here?
The T/C was 157 % of control.

And the T/C (dose: 25.0 mg/kg/injection, schedule: Q01DX009 (ip), vehicle: water)?
The T/C was 210 % of control.

And the T/C (dose: 50.0 mg/kg/injection, schedule: Q01DX009 (ip), vehicle: water)?
The T/C was 165 % of control.

For `Brc1ccccc1C[n+]1cccc2ccccc21`, which T/C (dose: 75.0 mg/kg/injection, schedule: Q01DX001 (ip), vehicle: other) is on record?
The T/C was 101 % of control.

`ClC1=C(Cl)C2(Cl)C(c3ccccc3)=CC1(Cl)C2(Cl)Cl` (centres undefined) was tested. Which T/C (dose: 100.0 mg/kg/injection, schedule: Q01DX009 (ip), vehicle: gum acacia) did it give?
Its T/C is 93 % of control.

What about the T/C (dose: 100.0 mg/kg/injection, schedule: Q04DX003 (ip), vehicle: gum acacia) of the same molecule?
The T/C was 114 % of control.

What about the T/C (dose: 200.0 mg/kg/injection, schedule: Q01DX009 (ip), vehicle: gum acacia) of the same molecule?
The T/C was 90 % of control.

And the T/C (dose: 200.0 mg/kg/injection, schedule: Q04DX003 (ip), vehicle: gum acacia)?
The T/C was 99 % of control.

And the T/C (dose: 400.0 mg/kg/injection, schedule: Q01DX009 (ip), vehicle: gum acacia)?
Its T/C is 100 % of control.

What about the T/C (dose: 400.0 mg/kg/injection, schedule: Q04DX003 (ip), vehicle: gum acacia) of the same molecule?
Its T/C is 92 % of control.

For `CN=C(NC)c1ccc(NC(=O)Nc2ccc(NC(=O)Nc3ccc(C(=NC)NC)cc3)cc2)cc1`, which T/C (dose: 3.94 mg/kg/injection, schedule: Q01DX Z (ip), vehicle: saline) is on record?
The T/C was 108 % of control.

What about the T/C (dose: 4.0 mg/kg/injection, schedule: Q01DX Z (ip), vehicle: carboxymethylcellulose (CMC)) of the same molecule?
Its T/C is 107 % of control.

What about the T/C (dose: 5.9 mg/kg/injection, schedule: Q01DX Z (ip), vehicle: saline) of the same molecule?
Its T/C is 114 % of control.

And the T/C [9]?
The T/C was 121 % of control.

And the T/C (dose: 8.86 mg/kg/injection, schedule: Q01DX Z (ip), vehicle: saline)?
Its T/C is 120 % of control.

What about the T/C (dose: 30.0 mg/kg/injection, schedule: Q01DX Z (ip), vehicle: carboxymethylcellulose (CMC)) of the same molecule?
Its T/C is 101 % of control.

And the T/C (dose: 45.0 mg/kg/injection, schedule: Q01DX Z (ip), vehicle: saline)?
The T/C was 115 % of control.

How did the T/C (dose: 100.0 mg/kg/injection, schedule: Q01DX Z (ip), vehicle: methylcellulose (MC)) turn out when `CCOC(=O)CCNC1CCCCC1` was run?
The T/C was 96 % of control.

What about the T/C (dose: 200.0 mg/kg/injection, schedule: Q01DX Z (ip), vehicle: methylcellulose (MC)) of the same molecule?
Its T/C is 94 % of control.

For `CCOP(=S)(OCC)OP(=S)(OCC)OCC`, which T/C (dose: 1.0 mg/kg/injection, schedule: Q01DX009 (ip), vehicle: other) is on record?
The T/C was 108 % of control.

And the T/C (dose: 1.0 mg/kg/injection, schedule: Q04DX003 (ip), vehicle: other)?
Its T/C is 100 % of control.

What about the T/C (dose: 2.0 mg/kg/injection, schedule: Q01DX009 (ip), vehicle: other) of the same molecule?
Its T/C is 90 % of control.

What about the T/C (dose: 2.0 mg/kg/injection, schedule: Q04DX003 (ip), vehicle: other) of the same molecule?
Its T/C is 97 % of control.

What about the T/C (dose: 4.0 mg/kg/injection, schedule: Q04DX003 (ip), vehicle: other) of the same molecule?
The T/C was 100 % of control.

Which T/C [10] does the source give for `CC(C)(F)C(Br)C(=O)O` (centres undefined) here?
Its T/C is 93 % of control.

Which results are given for `CCN(C(=O)c1ccc2c3c(cccc13)C=C2)c1ccccc1`?
T/C [1]: 104 % of control; T/C [2]: 98 % of control; T/C [3]: 98 % of control

Which results are given for `c1ccc2c(c1)Sc1ccccc1S2`?
T/C [11]: 106 % of control; T/C [12]: 112 % of control; T/C [13]: 101 % of control; T/C [14]: 104 % of control

What does the source list for `COc1cc2oc3cc(C)oc(=O)c3c2cc1OC`?
T/C (dose: 100.0 mg/kg/injection, schedule: Q04DX002 (ip), vehicle: saline with Tween-80): 106 % of control; T/C [10]: 95 % of control; T/C (dose: 400.0 mg/kg/injection, schedule: Q04DX002 (ip), vehicle: saline with Tween-80): 103 % of control

Which results are given for `O=C(NCCCNC(=O)Nc1cccc(C2=NCCN2)c1)Nc1cccc(C2=NCCN2)c1`?
T/C [9]: 104 % of control; T/C (dose: 16.0 mg/kg/injection, schedule: Q01DX Z (ip), vehicle: carboxymethylcellulose (CMC)): 111 % of control; T/C (dose: 32.0 mg/kg/injection, schedule: Q01DX Z (ip), vehicle: carboxymethylcellulose (CMC)): 104 % of control; T/C (dose: 64.0 mg/kg/injection, schedule: Q01DX Z (ip), vehicle: carboxymethylcellulose (CMC)): 94 % of control

With `O=C(Nc1ccc(S(=O)(=O)F)cc1)/C(=C/c1ccc([N+](=O)[O-])cc1)CCc1ccccc1` as the molecule, how does the T/C [4] read?
The T/C was 105 % of control.

And the T/C [5]?
Its T/C is 97 % of control.

And the T/C (dose: 400.0 mg/kg/injection, schedule: Q04DX003 (ip), vehicle: saline with Tween-80)?
The T/C was 94 % of control.

How did the T/C (dose: 50.0 mg/kg/injection, schedule: Q04DX003 (ip), vehicle: Klucel (hydroxypropylcellulose) (HPC)) turn out when `COCC(=O)OCCCCCOC(=O)COC` was run?
The T/C was 104 % of control.

And the T/C (dose: 100.0 mg/kg/injection, schedule: Q04DX003 (ip), vehicle: Klucel (hydroxypropylcellulose) (HPC))?
Its T/C is 102 % of control.

And the T/C (dose: 200.0 mg/kg/injection, schedule: Q04DX003 (ip), vehicle: Klucel (hydroxypropylcellulose) (HPC))?
Its T/C is 96 % of control.

What about the T/C (dose: 400.0 mg/kg/injection, schedule: Q04DX003 (ip), vehicle: Klucel (hydroxypropylcellulose) (HPC)) of the same molecule?
The T/C was 88 % of control.

With `Clc1cccc2nsnc12` as the molecule, how does the T/C [6] read?
Its T/C is 102 % of control.

And the T/C [7]?
Its T/C is 100 % of control.

And the T/C [8]?
Its T/C is 102 % of control.

How did the T/C [1] turn out when `CC(C)(C)/C([O-])=N/[N+](C)(C)Cc1ccccc1` was run?
Its T/C is 97 % of control.

And the T/C [2]?
The T/C was 98 % of control.

And the T/C [3]?
The T/C was 98 % of control.

`O=C1C2(c3ccccc3)CC(Cc3ccccc3)C1(c1ccccc1)C(c1ccccc1)=C2c1ccccc1` (centres undefined) was tested. Which T/C [11] did it give?
The T/C was 100 % of control.

And the T/C [12]?
Its T/C is 97 % of control.

What about the T/C [13] of the same molecule?
The T/C was 111 % of control.

And the T/C [14]?
The T/C was 95 % of control.

Which T/C (dose: 12.5 mg/kg/injection, schedule: Q04DX003 (ip), vehicle: saline with Tween-80) does the source give for `C[C@H]1CP(c2ccccc2)(c2ccccc2)(c2ccccc2)O[C@@]1(C(=O)c1ccccc1)c1ccccc1` here?
Its T/C is 100 % of control.

What about the T/C (dose: 25.0 mg/kg/injection, schedule: Q04DX003 (ip), vehicle: saline with Tween-80) of the same molecule?
Its T/C is 100 % of control.

What about the T/C (dose: 50.0 mg/kg/injection, schedule: Q04DX003 (ip), vehicle: saline with Tween-80) of the same molecule?
Its T/C is 94 % of control.
